Key:
[1] = Oral bioavailability when dosed as a crystalline solid, monkeys; assay type: in vivo; details: even when surfactant was included in the formulation
[2] = Oral bioavailability when dosed as a crystalline solid, dogs; assay type: in vivo; details: even when surfactant was included in the formulation
[3] = Aqueous solubility of Compound I; assay type: physicochemical
[4] = Solubility of Compound I Polymorph B in various liquid vehicles (suspension equilibrated at least 24 hours, filtered, HPLC); assay type: physicochemical
Description: Solubility determinations were carried out at room temperature unless otherwise specified. Solubility of N-[1S,2S]-3-(4-chlorophenyl)-2-(3-cyanophenyl)-1-methylpropyl]-2-methyl-2-{[5-trifluoromethyl]pyridine-2-yl}oxy}propanamide (Compound I) as anhydrous unsolvated Polymorph B (such as prepared in Preparatory Example 2) was determined by preparing a suspension of anhydrous unsovated Polymorph B of Compound I in the solvent system. After equilibration for at least 24 hours, the suspension was filtered and the supernatant was analyzed by HPLC. Chromatography was performed on either a Vydac C18 300 A 250×4.6 mm 5 um particle size with in-line Phenomenex Security Guard w/ C18 cartridge or on a Polaris C18-Ether columns or on a Polaris C8-Ether columns using 0.1% phosphoric acid in combination with methanol or acetonitrile depending on HPLC conditions. The compound was detected at […] and assayed using standard curves. The results are presented below in Table 1, calculated based on mg/g vehicle.

oral bioavailability [1]: very poorly orally bioavailable
oral bioavailability [2]: very poorly orally bioavailable
solubility ([3]; aqueous medium (not further specified)): < 0.4 µg/mL
solubility ([3]; aqueous medium, typically): < 0.4 µg/mL
Solubility of Compound I, mg/g of vehicle ([4]; CAPRYOL PGMC, anhydrous unsolvated Polymorph B, room temperature): 396 mg/g of vehicle
Solubility of Compound I, mg/g of vehicle ([4]; CREMOPHOR-EL, Polymorph B, room temperature): 131 mg/g of vehicle
Solubility of Compound I, mg/g of vehicle ([4]; Corn oil-SPAN 80-CREMOPHOR EL (35:35:30), w/w/w, Polymorph B, room temperature): 69 mg/g of vehicle
Solubility of Compound I, mg/g of vehicle ([4]; Corn oil-SPAN 80-TWEEN 80 (30:30:40), w/w/w, Polymorph B, room temperature): 78 mg/g of vehicle
Solubility of Compound I, mg/g of vehicle ([4]; Corn oil/Oleic acid/TWEEN 80 (5:2:3), w/w/w, Polymorph B, room temperature): 57 mg/g of vehicle
Solubility of Compound I, mg/g of vehicle ([4]; Glycerol, Polymorph B, room temperature): 0.4 mg/g of vehicle
Solubility of Compound I, mg/g of vehicle ([4]; IMWITOR 742-MIGLYOL 812-TWEEN 80, (15:65:20) w/w/w, Polymorph B, room temperature): 140 mg/g of vehicle
Solubility of Compound I, mg/g of vehicle ([4]; IMWITOR 742-MIGLYOL 812-TWEEN 80, (30:50:20) w/w/w, Polymorph B, room temperature): 171 mg/g of vehicle
Solubility of Compound I, mg/g of vehicle ([4]; IMWITOR 742-MIGLYOL 812-TWEEN 80, (40:40:20) w/w/w, Polymorph B, room temperature): 187 mg/g of vehicle
Solubility of Compound I, mg/g of vehicle ([4]; IMWITOR 742-MIGLYOL 812-TWEEN 80,(45:45:10) w/w/w, Polymorph B, room temperature): ≧191 mg/g of vehicle
Solubility of Compound I, mg/g of vehicle ([4]; IMWITOR 742-Oleic Acid-TWEEN 80-MIGLYOL 812 (2:4:2:2), w/w/w/w, Polymorph B, room temperature): 140 mg/g of vehicle
Solubility of Compound I, mg/g of vehicle ([4]; IMWITOR 742-TWEEN 80 (50:50) w/w, Polymorph B, room temperature): 184 mg/g of vehicle
Solubility of Compound I, mg/g of vehicle ([4]; IMWITOR 742-TWEEN 80 (60:40), w/w, Polymorph B, room temperature): 209 mg/g of vehicle
Solubility of Compound I, mg/g of vehicle ([4]; IMWITOR 742-TWEEN 80, (70:30), w/w, Polymorph B, room temperature): 222 mg/g of vehicle
Solubility of Compound I, mg/g of vehicle ([4]; IMWITOR 742-TWEEN 80-Oleic Acid (4:2:4), w/w/w, Polymorph B, room temperature): 159 mg/g of vehicle
Solubility of Compound I, mg/g of vehicle ([4]; IMWITOR 742-TWEEN 80-Oleic Acid (5:3:2), w/w/w, Polymorph B, room temperature): 178 mg/g of vehicle
Solubility of Compound I, mg/g of vehicle ([4]; IMWITOR 742, at 30 C., anhydrous unsolvated Polymorph B): 267 (at 30 C.) mg/g of vehicle
Solubility of Compound I, mg/g of vehicle ([4]; LABRAFIL M1944CS, Polymorph B, room temperature): 84 mg/g of vehicle
Solubility of Compound I, mg/g of vehicle ([4]; LABRASOL, Polymorph B, room temperature): 202 mg/g of vehicle
Solubility of Compound I, mg/g of vehicle ([4]; MIGLYOL 812-Corn oil-SPAN 80-TWEEN 80 (30:20:25:25), w/w/w, Polymorph B, room temperature): 97 mg/g of vehicle
Solubility of Compound I, mg/g of vehicle ([4]; MIGLYOL 812-IMWITOR 742, 1:1 v/v, Polymorph B, room temperature): ≧204 mg/g of vehicle
Solubility of Compound I, mg/g of vehicle ([4]; MIGLYOL 812-IMWITOR 742, 4:1 v/v, Polymorph B, room temperature): 173 mg/g of vehicle
Solubility of Compound I, mg/g of vehicle ([4]; MIGLYOL 812-LABRASOL/TWEEN80/Oleic acid (40:25:25:10), w/w/w/w, Polymorph B, room temperature): 158 mg/g of vehicle
Solubility of Compound I, mg/g of vehicle ([4]; MIGLYOL 812-PECEOL, 1:1 v/v, Polymorph B, room temperature): 118 mg/g of vehicle
Solubility of Compound I, mg/g of vehicle ([4]; MIGLYOL 812-TWEEN 80, 1:1 w/w, Polymorph B, room temperature): 113 mg/g of vehicle
Solubility of Compound I, mg/g of vehicle ([4]; MIGLYOL 812/Oleic acid/CREMOPHOR EL (5:2:3), w/w/w/w, Polymorph B, room temperature): 129 mg/g of vehicle
Solubility of Compound I, mg/g of vehicle ([4]; MIGLYOL 812/Oleic acid/TWEEN 80 (5:2:3), w/w/w/w, Polymorph B, room temperature): 120 mg/g of vehicle
Solubility of Compound I, mg/g of vehicle ([4]; MIGLYOL 812, Polymorph B, room temperature): 94 mg/g of vehicle
Solubility of Compound I, mg/g of vehicle ([4]; Oleic Acid, Polymorph B, room temperature): 20 mg/g of vehicle
Solubility of Compound I, mg/g of vehicle ([4]; Olive oil, Polymorph B, room temperature): 18 mg/g of vehicle
Solubility of Compound I, mg/g of vehicle ([4]; PEG400-TWEEN80 (1:1), w/w, Polymorph B, room temperature): 138 mg/g of vehicle
Solubility of Compound I, mg/g of vehicle ([4]; PEG400, Polymorph B, room temperature): 120 mg/g of vehicle
Solubility of Compound I, mg/g of vehicle ([4]; PG, Polymorph B, room temperature): 28 mg/g of vehicle
Solubility of Compound I, mg/g of vehicle ([4]; SPAN 80, Polymorph B, room temperature): 45 mg/g of vehicle
Solubility of Compound I, mg/g of vehicle ([4]; Soybean Oil, Polymorph B, room temperature): 21 mg/g of vehicle
Solubility of Compound I, mg/g of vehicle ([4]; Soybean oil-SPAN 80-TWEEN 80 (50:25:25), w/w/w, Polymorph B, room temperature): 59 mg/g of vehicle
Solubility of Compound I, mg/g of vehicle ([4]; TWEEN 80-LABRASOL-Oleic Acid (25:25:50), w/w/w, Polymorph B, room temperature): 120 mg/g of vehicle
Solubility of Compound I, mg/g of vehicle ([4]; TWEEN 80, Polymorph B, room temperature): 104 mg/g of vehicle
SMILES: C[C@H](NC(=O)C(C)(C)Oc1ccc(C(F)(F)F)cn1)[C@@H](Cc1ccc(Cl)cc1)c1cccc(C#N)c1 [Compound I, N-[1S,2S]-3-[(4-chlorophenyl)-2-(3-cyanophenyl)-1-methylpropyl]-2-methyl-2-{[(5-trifluoromethyl)pyridine-2-yl]oxy}propanamide]

Source: US20070298099A1, “Liquid and Semi-Solid Pharmaceutical Formulations for Oral Administration of a Substituted Amide” (priority 2004, published 2007)
